Entries after “also recorded” stand apart in the source; their conditions may differ. Where two headings read alike, the source gives them in different places.
Experiments:
[1] = tested on: MDA-MB-231 triple-negative breast cancer cells; assay: MTT cytotoxicity assay, MDA-MB-231; type: cell-based, human; details: mean ± SD, read-out: Cytotoxic activity IC50, MDA-MB-231
Text: (§1) The human neuroblastoma cells (SH-SY5Y), triple-negative breast cancer cells (MDA-MB-231), and human pancreatic cancer cells (Panc1) used in this study were purchased from the American Type Culture Collection (ATCC). The cells were suspended in complete Dulbecco’s modified Eagle medium (DMEM) (Life Technologies, Gibco BRL, Grand Island, NY) supplemented with 10% fetal bovine serum (FBS, Hyclone), 1% penicillin and streptomycin (100 U/mL, Invitrogen) and plated in cell culture dishes. The cultures were maintained at 37 °C in a 5% CO2 95% humidified atmosphere. After reaching 85% confluence, the cells were transferred to 96-well plates or culture dishes. For MTT assays, the cells were seeded into 96-well cell culture plates at a density of 2 × 10^3 cells per well and allowed to adhere for 24 h. The cells were treated with fresh medium containing experimental compounds (100, 10, 1 µM) and incubated in a 5% CO2 incubator for 48 and 72 h. For protein analysis, the cells were seeded into 6-well cell culture plates at a density of 0.5 x 10^6 cells/well and allowed to adhere to the surface for 24 h. The stock solutions of the test compounds (5 mM) were prepared in sterile DMSO, and these stocks were then appropriately diluted with the complete culture medium. DMSO levels were maintained below 1% in the test concentrations.
(§2) Briefly, following exposures, MTT (at a final concentration of 0.5 mg/mL) was added to each well, and plates were incubated for 2 h at 37 °C in a 5% CO2 humidified incubator. The reaction mixture was removed, and DMSO was added to each well. The plates were shaken at room temperature, and the absorbance was measured at 570 nm and 630 nm using a microplate reader (VersaMax, Molecular Devices, USA). Percent survival was plotted relative to vehicle control cells, which were normalized to 100% survival.

[2] = tested on: SH-SY5Y human neuroblastoma cells; assay: MTT cytotoxicity assay, SH-SY5Y; type: cell-based; details: Homo sapiens, SH-SY5Y, mean ± SD, read-out: Cytotoxic activity IC50, SH-SY5Y
Text: as §1, §2

[3] = tested on: PANC-1 human pancreatic cancer cells; assay: MTT cytotoxicity assay, PANC-1; type: cell-based; details: Homo sapiens, PANC-1, MTT, mean ± SD, read-out: Cytotoxic activity IC50, PANC-1
Text: as §1, §2

[4] = MTT cytotoxicity assay, MCF-10a (nontumorigenic); type: cell-based; details: MCF-10a nontumorigenic mammary cells, MCF-10a nontumorigenic human mammary cell line, mean ± SD, read-out: Cytotoxic activity IC50, MCF-10a
Text: [The source words this procedure for another cell line and reports this cell line under the same test.] as §1, §2

[5] = tested on: BAX, Bcl-2, Bcl-xL, caspase-3 and caspase-9 expression in MDA-MB-231 cell line; assay: Western blot of apoptotic proteins, MDA-MB-231; type: cell-based, human; details: for BAX protein levels: after only 24 h; for increase of caspase-9 activity: after only 48 h, relative to control
Description: (§3) The cells (0.5 × 10^6 cell/well) were seeded into 6 well plates and incubated for 24 h, and then treated with selected experimental compounds for 24 h and 48 h. Following incubation, the cells were washed with ice-cold 1X PBS and lysed in 1X cell lysis buffer. These lysates were quantified using the BCA protein assay. Then, the cell lysates were analyzed by western blot.
(§4) On a 12% (w/v) tris-glycine denaturing gel, 20 μg protein was separated by electrophoresis, and then transferred to a PVDF membrane. After blocking, the membrane was incubated with primary antibodies, anti-Bax rabbit monoclonal antibody, anti-Bcl-2 rabbit monoclonal antibody, anti-Bcl-xL rabbit monoclonal antibody, anti-caspase-3 rabbit monoclonal antibody, and anti-caspase-9 rabbit monoclonal antibody (1:1000, Cell Signaling Technology) at 4 °C overnight. Following the incubation, the membrane was incubated with an anti-β-actin mouse monoclonal antibody (1:1000, Cell Signaling Technology) at room temperature for 1 h. After washing, the membrane was incubated with peroxidase-conjugated secondary antibodies for 1 h to visualize labeled proteins by enhanced chemiluminescence.

[6] = tested on: BAX, Bcl-2, Bcl-xL, caspase-3 and caspase-9 expression in PANC-1 cell line; assay: Western blot of apoptotic proteins, PANC-1; type: cell-based, human; details: at IC50, 24 and 48 h, vs control
Description: as §3, §4

SH-SY5Y cells = assay: Annexin V-FITC/PI flow cytometry, SH-SY5Y; type: cell-based, human; details: 48 h, control 3.2%
Description: (§5) The cells were harvested after 48 h, washed with PBS, and analyzed using the Annexin V FITC/PI Apoptosis Detection kit (BioVision, Mountain View, CA, USA) with a benchtop flow cytometer (Accuri C6 flow cytometry, Becton Dickinson).

MDA-MB-231 cells = assay: Annexin V-FITC/PI flow cytometry, MDA-MB-231; type: cell-based, human; details: 48 h, control 1.2%
Description: as §5

PANC-1 cells = assay: Annexin V-FITC/PI flow cytometry, PANC-1; type: cell-based, human; details: at cytotoxic concentrations, 48 h
Description: as §5

Structure (SMILES)	IC50 ([1]; Homo sapiens, MDA-MB-231, MTT) [µM]	melting point [°C]	IC50 [2] [µM]	IC50 [3] [µM]	IC50 [4] [µM]	IC50 ([1]; MTT) [µM]	BAX protein levels ([5]; Western blot)	increase of caspase-9 activity [5] [fold]	caspase-3 expression [6]	apoptotic cell ratios (SH-SY5Y cells) [%]	percent of the positive apoptotic cells (MDA-MB-231 cells) [%]	apoptotic cell ratios (Annexin V-FITC/PI result) (PANC-1 cells)	BAX expression [6]	Bcl-2 expression [6]	Bcl-xL expression [6]	caspase-9 expression [6]	caspase-3 expression (in words) ([5]; Western blot)	caspase-9 expression levels (in words) ([5]; Western blot)	decrease of Bcl-2 expression ([5]; after 24 and 48 h, compared to control)
NS(=O)(=O)CCNC(=O)c1ccccc1 [Compound 9, N-(2-sulfamoylethyl)benzamide]	99.8 ± 1.7	162 to 163	81.1 ± 2.1	85.5 ± 1.7	109 ± 1.1	–	–	–	–	–	–	–	–	–	–	–	–	–	–
NS(=O)(=O)CCNC(=O)c1ccc(Cl)cc1 [Compound 10, 4-Chloro-N-(2-sulfamoylethyl)benzamide]	77	158 to 159	38.6 ± 1.6	89.1 ± 1.7	172.1 ± 1.4	79.1 ± 1.3	significantly increased	1.12	effectively increased	–	–	–	–	–	–	–	–	–	–
COc1ccc(C(=O)NCCS(N)(=O)=O)cc1 [Compound 11, 4-Methoxy-N-(2-sulfamoylethyl)benzamide]	114 ± 1.3	176 to 177	237.8 ± 1.7	83.8 ± 1.5	81.1 ± 1.4	–	–	–	–	–	–	–	–	–	–	–	–	–	–
Cc1ccc(C(=O)NCCS(N)(=O)=O)cc1 [Compound 12, 4-Methyl-N-(2-sulfamoylethyl)benzamide]	81 ± 1.6	181 to 182	79.5 ± 1.8	44.6 ± 1.9	106 ± 1.4	–	–	–	–	–	–	–	–	–	–	–	–	–	–
COc1ccc(NS(=O)(=O)CCNC(=O)c2ccccc2)cc1 [Compound 13, N-(2-(N-(4-methoxyphenyl)sulfamoyl)ethyl)benzamide]	76.1 ± 1.6	110 to 111	47.5 ± 1.5	17.9 ± 2.1	217.8 ± 1.3	–	–	–	–	–	–	–	–	–	–	–	–	–	–
COc1ccc(NS(=O)(=O)CCNC(=O)c2ccc(Cl)cc2)cc1 [Compound 14, 4-Chloro-N-(2-(N-(4-methoxyphenyl)sulfamoyl)ethyl)benzamide]	19.9 ± 1.7	160 to 161	26 ± 1.4	22.5 ± 1.7	109 ± 1.2	–	significantly increased	1.18	increased	3.8	1.6	no significant changes; also recorded: negative	increased	decrease	decrease	increased	–	–	–
COc1ccc(NS(=O)(=O)CCNC(=O)c2ccc(OC)cc2)cc1 [Compound 15, 4-Methoxy-N-(2-(N-(4-methoxyphenyl)sulfamoyl)ethyl)benzamide]	33.9 ± 1.8	112 to 113	39.9 ± 1.6	18.1 ± 1.6	118 ± 1.4	–	significantly increased	–	opposite effect	3.9	1.4	no significant changes; also recorded: negative	–	–	opposite effect	opposite effect	increased	did not exert any effect	2- to 3 fold
COc1ccc(NS(=O)(=O)CCNC(=O)c2ccc(C)cc2)cc1 [Compound 16, N-(2-(N-(4-methoxyphenyl)sulfamoyl)ethyl)-4-methylbenzamide]	15.7 ± 1.9	127 to 128	32.7 ± 1.7	21.4 ± 1.7	132.9 ± 1.2	–	–	–	–	–	–	–	–	–	–	–	–	–	–

From paper PMC7763113, “Design, synthesis, cytotoxic activity, and apoptosis inducing effects of 4- and N-substituted benzoyltaurinamide derivatives” (Turkish Journal of Chemistry, 2020)
